Data published in US20090136624A1, “LACTIC ACID BACTERIA PRODUCING NISIN AT HIGH CONCENTRATION AND METHOD FOR SELECTING THE SAME” (Ajinomoto Co., Inc., priority 2004, published 2009).

What was measured:
[1] = system: Nisin Z-producing lactic acid bacteria (mutated strain); test: Growth of NTG-mutated Nisin Z-producing lactic acid bacteria in Nisin-containing M17 medium; format: cell-based, Lactococcus lactis
Procedure: The Nisin Z-producing lactic acid bacteria separated from its native environment were precultured in M17 medium, and the lactic acid bacteria were treated with 500 μg/mL of NTG to induce mutation.

[2] = system: Nisin Z-producing strain (parent strain); test: Growth of parent strain on Nisin-containing M17 medium (MIC); format: cell-based, Lactococcus lactis; conditions: 30° C., 2 days
Procedure: A Nisin Z-producing strain (parent strain shown in Table 3) separated from its native environment was plated on M17 medium (manufactured by Difco) prepared such that a Nisin concentration became 1,000, 2,000, 5,000 or 10,000 IU/mL, and was cultured at 30° C. for 2 days. This strain grew in M17 medium having a Nisin concentration of 1,000 or 2,000 IU/mL, but not in M17 medium having a Nisin concentration of 5,000 or 10,000 IU/mL. From the results, it was confirmed that the minimum growth inhibitory concentration (MIC) of this strain to Nisin was 5,000 IU/mL.

## Nisin
[1]; Nisin conc. 1,000 IU/ml
  Growth number: 1.20E+09 cell/ml
[1]; Nisin conc. 2,000 IU/ml
  Growth number: 1.20E+09 cell/ml
[1]; Nisin conc. 4,000 IU/ml
  Growth number: 1.20E+09 cell/ml
[1]; Nisin conc. 8,000 IU/ml
  Growth number: 7.00E+08 cell/ml
[1]; Nisin conc. 10,000 IU/ml
  Growth number: 1.14E+08 cell/ml
[1]; Nisin conc. 20,000 IU/ml
  Growth number: 3.21E+07 cell/ml
[1]; Nisin conc. 40,000 IU/ml
  Growth number: 9.35E+05 cell/ml
[1]; Nisin conc. 80,000 IU/ml
  Growth number: 1.16E+03 cell/ml
[1]; Nisin conc. 100,000 IU/ml
  Growth number: 4.76E+02 cell/ml
[2]
  minimum growth inhibitory concentration (MIC) of this strain to Nisin: 5,000 IU/mL
